Assay results reported in ChEMBL document CHEMBL1909046, “DrugMatrix in vitro pharmacology data”.

Tests used:
Cytochrome P450 1A2 = biological target: T1, Cytochrome P450 1A2 (Homo sapiens, UniProt P05177); details: bti-tn-5b1-4; also: in other assays of this panel Not Active means under 50% inhibition at 10 µM
T1 sequence (P05177 whole entry): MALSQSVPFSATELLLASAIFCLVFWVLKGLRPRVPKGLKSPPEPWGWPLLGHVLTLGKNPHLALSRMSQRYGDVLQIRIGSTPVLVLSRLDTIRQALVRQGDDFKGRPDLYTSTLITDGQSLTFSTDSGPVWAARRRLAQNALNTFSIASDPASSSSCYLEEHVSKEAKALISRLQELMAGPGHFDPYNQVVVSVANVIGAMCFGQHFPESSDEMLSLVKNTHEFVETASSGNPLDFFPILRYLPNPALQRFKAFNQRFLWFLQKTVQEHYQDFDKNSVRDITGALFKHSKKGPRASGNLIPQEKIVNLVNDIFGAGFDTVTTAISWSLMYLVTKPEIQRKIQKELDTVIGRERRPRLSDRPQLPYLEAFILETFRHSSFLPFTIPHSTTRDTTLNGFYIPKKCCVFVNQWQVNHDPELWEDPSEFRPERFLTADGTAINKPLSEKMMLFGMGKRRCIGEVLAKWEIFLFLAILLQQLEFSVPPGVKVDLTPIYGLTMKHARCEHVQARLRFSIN

[1] = DRUGMATRIX: Purinergic P2X radioligand binding (ligand: [3H] alpha, beta-Methylene-ATP); format: cell membranes, Oryctolagus cuniculus, New Zealand albino, Urinary bladder, Membrane; details: Not Active = under 50% inhibition at 10 µM
[2] = biological target: Tyrosine-protein kinase Fyn (Homo sapiens, UniProt P06241); assay: biochemical; format: cell-based, Insect cells;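 also: enzymatic inhibition of Fyn kinase activity measured with Poly(Glu:Tyr) as the phosphorylation substrate; in other assays of this panel Not Active means under 50% inhibition at 10 µM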
Adenosine receptor A1 = biological target: T2, Adenosine receptor A1 (Homo sapiens, UniProt P30542); format: cell membranes, CHO, Membrane; details: cho;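 also: radioligand binding assay at the adenosine A1 receptor, with DPCPX serving as the labelled ligand; in other assays of this panel Not Active means under 50% inhibition at 10 µM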
T2 sequence (P30542 whole entry): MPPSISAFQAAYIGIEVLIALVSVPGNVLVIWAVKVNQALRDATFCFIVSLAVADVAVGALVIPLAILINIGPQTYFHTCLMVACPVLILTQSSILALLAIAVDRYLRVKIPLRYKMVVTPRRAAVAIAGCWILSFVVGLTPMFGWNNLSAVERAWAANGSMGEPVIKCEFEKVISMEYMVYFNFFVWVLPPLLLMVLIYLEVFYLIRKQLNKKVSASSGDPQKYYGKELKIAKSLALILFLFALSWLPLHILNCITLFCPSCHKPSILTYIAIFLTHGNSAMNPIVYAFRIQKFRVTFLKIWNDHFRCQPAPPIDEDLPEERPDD

[3] = biological target: Beta-3 adrenergic receptor (Homo sapiens, UniProt P13945); assay: DRUGMATRIX: Adrenergic beta3 radioligand binding (ligand: [125I] Cyanopindolol); format: cell membranes, HEK293, Membrane; details: hek293; Not Active = under 50% inhibition at 10 µM
Adenosine receptor A2a = Adenosine receptor A2a (Homo sapiens, UniProt P29274); assay: DRUGMATRIX: Adenosine A2A radioligand binding (ligand: […]); format: cell membranes, Membrane; details: hek293; Not Active = under 50% inhibition at 10 µM
Melanocortin receptor 3 = Melanocortin receptor 3 (Homo sapiens, UniProt P41968); format: cell membranes, HEK293, Membrane; details: hek293; also: in other assays of this panel Not Active means under 50% inhibition at 10 µM
[4] = biological target: T3, Vasoactive intestinal polypeptide receptor 1 (Homo sapiens, UniProt P32241); format: cell membranes, Membrane; details: ht-29; also: in other assays of this panel Not Active means under 50% inhibition at 10 µM
T3 sequence (P32241 whole entry): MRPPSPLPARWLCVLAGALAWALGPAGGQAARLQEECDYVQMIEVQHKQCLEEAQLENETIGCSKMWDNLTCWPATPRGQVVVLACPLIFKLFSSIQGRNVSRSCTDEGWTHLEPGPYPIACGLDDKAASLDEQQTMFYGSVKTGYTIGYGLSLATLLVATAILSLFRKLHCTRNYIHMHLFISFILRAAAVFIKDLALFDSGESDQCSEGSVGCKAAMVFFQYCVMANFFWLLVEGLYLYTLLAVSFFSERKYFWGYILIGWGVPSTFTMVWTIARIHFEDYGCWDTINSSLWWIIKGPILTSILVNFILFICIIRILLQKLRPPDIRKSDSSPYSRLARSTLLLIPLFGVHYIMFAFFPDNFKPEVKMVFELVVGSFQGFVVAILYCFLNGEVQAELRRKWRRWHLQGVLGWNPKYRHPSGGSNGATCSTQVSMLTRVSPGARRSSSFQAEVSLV

Adenosine receptor A2a, sequence (P29274 whole entry): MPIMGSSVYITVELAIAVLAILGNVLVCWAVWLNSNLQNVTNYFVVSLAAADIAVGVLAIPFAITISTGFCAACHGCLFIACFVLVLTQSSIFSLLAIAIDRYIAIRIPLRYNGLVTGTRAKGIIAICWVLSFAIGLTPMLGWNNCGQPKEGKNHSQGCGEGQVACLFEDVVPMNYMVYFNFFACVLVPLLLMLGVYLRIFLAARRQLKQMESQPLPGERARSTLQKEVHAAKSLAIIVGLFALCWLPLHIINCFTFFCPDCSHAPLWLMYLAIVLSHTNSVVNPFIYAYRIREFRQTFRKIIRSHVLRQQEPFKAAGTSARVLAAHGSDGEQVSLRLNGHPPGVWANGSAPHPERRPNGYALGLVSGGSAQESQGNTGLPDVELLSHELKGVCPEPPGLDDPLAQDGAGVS
Tyrosine-protein kinase Fyn, sequence (P06241 whole entry): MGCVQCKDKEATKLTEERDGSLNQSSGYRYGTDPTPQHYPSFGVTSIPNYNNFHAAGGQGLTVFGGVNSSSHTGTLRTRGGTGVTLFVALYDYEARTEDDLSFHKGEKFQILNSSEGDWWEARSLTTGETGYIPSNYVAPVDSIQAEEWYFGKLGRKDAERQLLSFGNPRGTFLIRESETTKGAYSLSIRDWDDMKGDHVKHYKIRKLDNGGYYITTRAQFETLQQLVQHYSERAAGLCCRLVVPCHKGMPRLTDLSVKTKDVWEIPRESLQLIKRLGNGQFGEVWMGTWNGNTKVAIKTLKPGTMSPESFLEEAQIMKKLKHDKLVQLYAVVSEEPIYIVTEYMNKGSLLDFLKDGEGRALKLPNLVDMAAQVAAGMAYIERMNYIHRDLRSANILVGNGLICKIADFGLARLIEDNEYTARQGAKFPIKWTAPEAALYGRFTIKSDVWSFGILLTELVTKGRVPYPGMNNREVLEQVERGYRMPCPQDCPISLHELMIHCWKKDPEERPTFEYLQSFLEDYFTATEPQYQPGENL
Melanocortin receptor 3, sequence (P41968 whole entry): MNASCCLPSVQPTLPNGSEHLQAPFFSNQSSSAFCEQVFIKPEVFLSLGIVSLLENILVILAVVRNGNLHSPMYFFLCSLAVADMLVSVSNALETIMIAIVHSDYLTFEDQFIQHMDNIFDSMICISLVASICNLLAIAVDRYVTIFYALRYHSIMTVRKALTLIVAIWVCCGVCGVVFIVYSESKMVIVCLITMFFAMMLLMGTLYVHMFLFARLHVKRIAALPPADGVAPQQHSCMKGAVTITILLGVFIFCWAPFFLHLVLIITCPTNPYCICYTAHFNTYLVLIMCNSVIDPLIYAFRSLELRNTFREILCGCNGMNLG
Beta-3 adrenergic receptor, sequence (P13945 whole entry): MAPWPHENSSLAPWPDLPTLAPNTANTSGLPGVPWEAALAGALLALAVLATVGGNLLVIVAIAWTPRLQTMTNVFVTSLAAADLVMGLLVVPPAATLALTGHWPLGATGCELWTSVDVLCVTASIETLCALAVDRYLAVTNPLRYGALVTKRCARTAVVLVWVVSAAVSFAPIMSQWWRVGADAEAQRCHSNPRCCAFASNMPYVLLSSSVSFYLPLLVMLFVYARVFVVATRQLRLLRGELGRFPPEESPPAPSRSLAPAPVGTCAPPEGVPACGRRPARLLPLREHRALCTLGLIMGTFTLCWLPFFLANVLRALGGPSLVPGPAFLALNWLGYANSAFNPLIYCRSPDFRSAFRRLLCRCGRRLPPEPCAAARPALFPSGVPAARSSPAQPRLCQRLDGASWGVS

| Compound | IC50 (Cytochrome P450 1A2) | Ki (Cytochrome P450 1A2) | IC50 [1] | Ki [1] | IC50 ([2]; insect cells) | IC50 (Adenosine receptor A1) | IC50 [3] | IC50 (Adenosine receptor A2a) | IC50 (Melanocortin receptor 3) | IC50 [4] | IC50 ([2]; read-out: IC50) [µM] | IC50 ([2]; insect cells, read-out: IC50) [µM] | Ki (Adenosine receptor A1) | Ki [3] | Ki (Adenosine receptor A2a) | Ki (Melanocortin receptor 3) | Ki [4] |
| --- | --- | --- | --- | --- | --- | --- | --- | --- | --- | --- | --- | --- | --- | --- | --- | --- | --- |
| CCCCN1CCCC[C@H]1C(=O)Nc1c(C)cccc1C [LEVOBUPIVACAINE] | Not Active | Not Active | Not Active | Not Active | Not Active | Not Active | Not Active | Not Active | Not Active | Not Active |  |  |  |  |  |  |  |
| CCCCc1nc(Cl)c(CO)n1Cc1ccc(-c2ccccc2-c2nnn[nH]2)cc1 [LOSARTAN] | Not Active | Not Active | Not Active | Not Active | Not Active | Not Active | Not Active | Not Active | Not Active | Not Active |  |  |  |  |  |  |  |
| Sc1ncnc2nc[nH]c12 [MERCAPTOPURINE ANHYDROUS] | Not Active | Not Active | Not Active | Not Active | Not Active | Not Active | Not Active | Not Active | Not Active | Not Active |  |  |  |  |  |  |  |
| C[C@](N)(Cc1ccc(O)c(O)c1)C(=O)O [METHYLDOPA] | Not Active | Not Active | Not Active | Not Active |  | Not Active | Not Active | Not Active | Not Active | Not Active | 5.18 |  |  |  |  |  |  |
| C[C@]12CCC(=O)C=C1CC[C@@H]1[C@@H]2CC[C@@]2(C)[C@H]1CC[C@]2(C)O [METHYLTESTOSTERONE] | Not Active | Not Active | Not Active | Not Active | Not Active | Not Active | Not Active | Not Active | Not Active | Not Active |  |  |  |  |  |  |  |
| Cc1ccccc1N1C(=O)c2cc(S(N)(=O)=O)c(Cl)cc2NC1C (stereo not given) [METOLAZONE] | Not Active | Not Active | Not Active | Not Active | Not Active | Not Active | Not Active | Not Active | Not Active | Not Active |  |  |  |  |  |  |  |
| COCCc1ccc(OCC(O)CNC(C)C)cc1 (stereo not given) [METOPROLOL] | Not Active | Not Active | Not Active | Not Active | Not Active | Not Active | Not Active | Not Active | Not Active | Not Active |  |  |  |  |  |  |  |
| CCn1cc(C(=O)O)c(=O)c2cc(F)c(N3CCNCC3)cc21 [NORFLOXACIN] | Not Active | Not Active | Not Active | Not Active | Not Active | Not Active | Not Active | Not Active | Not Active | Not Active |  |  |  |  |  |  |  |
| NC1=NC(=O)C(c2ccccc2)O1 (stereo not given) [PEMOLINE] | Not Active | Not Active | Not Active | Not Active | Not Active | Not Active | Not Active | Not Active | Not Active | Not Active |  |  |  |  |  |  |  |
| Nc1nc2c(ncn2CCC(CO)CO)c(=O)[nH]1 [PENCICLOVIR] | Not Active | Not Active | Not Active | Not Active | Not Active | Not Active | Not Active | Not Active | Not Active | Not Active |  |  |  |  |  |  |  |
| C=C(C)C1(O)OC(=O)C=C1OC (stereo not given) [PENICILLIC ACID] | Not Active | Not Active | Not Active | Not Active | Not Active | Not Active | Not Active | Not Active | Not Active | Not Active |  |  |  |  |  |  |  |
| CCCN1C[C@H](CSC)C[C@@H]2c3cccc4[nH]cc(c34)C[C@H]21 [PERGOLIDE] | Not Active | Not Active | Not Active | Not Active | Not Active | Not Active | Not Active | Not Active | Not Active | Not Active |  |  |  |  |  |  |  |
| C1CCC(C(CC2CCCCN2)C2CCCCC2)CC1 (stereo not given) [PERHEXILINE] | Not Active | Not Active | Not Active | Not Active |  | Not Active | Not Active | Not Active | Not Active | Not Active | 4.06 |  |  |  |  |  |  |
| CCOc1ccc(NC(C)=O)cc1 [PHENACETIN] | Not Active | Not Active | Not Active | Not Active | Not Active | Not Active | Not Active | Not Active | Not Active | Not Active |  |  |  |  |  |  |  |
| Cc1ccc(N(CC2=NCCN2)c2cccc(O)c2)cc1 [PHENTOLAMINE] | Not Active | Not Active | Not Active | Not Active | Not Active | Not Active | Not Active | Not Active | Not Active | Not Active |  |  |  |  |  |  |  |
| CNNCc1ccc(C(=O)NC(C)C)cc1 [PROCARBAZINE] | Not Active | Not Active | Not Active | Not Active | Not Active | Not Active | Not Active | Not Active | Not Active | Not Active |  |  |  |  |  |  |  |
| CC(O)CO (stereo not given) [PROPYLENE GLYCOL] | Not Active | Not Active | Not Active | Not Active | Not Active | Not Active | Not Active | Not Active | Not Active | Not Active |  |  |  |  |  |  |  |
| LIPOPOLYSACCHARIDE E. COLI O55:B5 | Not Active | Not Active | Not Active | Not Active |  | Not Active | Not Active | Not Active | Not Active | Not Active |  | 0.191 | Not Active | Not Active | Not Active | Not Active | Not Active |
